Assay results reported in US9034403B2, “Yeast extract containing γ-Glu-X or γ-Glu-X-Gly and a method for producing the same” (AJINOMOTO CO., INC., priority 2010, dated 2015).
Peptide text beside a SMILES is read from it.

What was measured:
[1] = system: Saccharomyces cerevisiae S288C strain; assay: Addition of Val-Gly to the S288C strain in SDP medium, γ-Glu-Val-Gly in dry cells; format: cell-based; conditions: Val-Gly 100 ppm added to SDP medium in advance, culture 24 hours
Description: One loop of the S288C strain was inoculated into SDP medium (ammonium sulfate used for the preparation of the SD medium was replaced with proline, final concentration of proline was 0.1 g/L, 50 ml in a 500 ml-volume Sakaguchi flask), and cultured at 30° C. for 24 hours with shaking at a velocity of 120 rpm. Absorbance of the resulting culture broth was measured, the culture broth was inoculated into SDP medium (400 ml in a 2 L-volume conical flask with baffle fins, two or more flasks) so that OD660 was 0.01 at the start of the culture, and culture was performed at 30° C. for 24 hours with shaking by rotation at a velocity of 120 rpm. To the SDP medium, Val-Gly (purchased from Bachem) was added in advance to a final concentration of 100 ppm. Using the culture broth, the amount of γ-Glu-Val-Gly in dry cells was calculated in the same manner as that of Example 2.

[2] = system: S288C, S288C PADH1-HGT1, S288C PADH1-PTR2; assay: γ-Glu-Val-Gly producing ability from Val-Gly of Hgt1p or Ptr2p overproducing strains; format: cell-based, Saccharomyces cerevisiae; conditions: 100 ppm Val-Gly in SD medium, 20 hours
Description: S288C PADH1-HGT1, Hgt1p overproducing strain obtained in Example 12, S288C PADH1-PTR2, Ptr2p overproducing strain obtained in Example 12, and their parental strain S288C were evaluated for their γ-Glu-Val-Gly producing abilities from Val-Gly. Each strain was cultivated in 50-ml tubes containing 10 ml of SD medium with 100 ppm Val-Gly as a final concentration. Tubes were inoculated by overnight culture of corresponding strain at initial OD600=0.01, and placed in rotation shaker at 240 rpm, 30° C. Cultivation time was for 20 hours. Then, cells from 2 ml of broth culture were harvested by centrifugation, and washed with 1 ml of milliQ water three times. Then, washed cells were suspended in 1 ml of milliQ and incubated at 70° C. for 10 min with a water bath to extract intracellular materials. After cell debris and the extract were separated by centrifugation, the aqueous phase was transferred to a clean vial and then the vial was vacuum-dried. Thus, the dried extract was prepared. Then γ-Glu-Val-Gly in the dried extract was measured with LC-MS/MS analysis as described in Example 12.

CC(C)[C@H](N)C(=O)NCC(=O)O [Val-Gly] (H-Val-Gly-OH)
γ-Glu-Val-Gly in dry cells [1]: 2 ppm | γ-Glu-Val-Gly in the dried extract ([2]; strain S288C PADH1-HGT1): 0.03 μg 1^−1 OD600^−1 | γ-Glu-Val-Gly in the dried extract ([2]; strain S288C PADH1-PTR2): 8.89 μg 1^−1 OD600^−1 | γ-Glu-Val-Gly in the dried extract ([2]; strain S288C): 0.04 μg 1^−1 OD600^−1
